The values below are quoted from earlier work in patent publication US9676702B2, “Methods for synthesizing amatoxin building block and amatoxins” (Heidelberg Pharma GmbH, priority 2012, dated 2017).

The data set addresses RNA-polymerase II (Homo sapiens, UniProt P24928+P30876). The conditions noted are these: non-covalent complex; background statement, no method given; read-out: KD of the complex between amanitin and RNA-polymerase II.

As to amanitin, the Kd was 3 nM.
